How the values were obtained:
Prothrombin = Prothrombin (Rattus norvegicus, UniProt P18292); experiment: In vitro ability to inhibit the amidolytic activity of thrombin
Rattus norvegicus [1] = experiment: Tested for in vivo activated partial thromboplastin time in rat arterial thrombosis model; type: functional
Rattus norvegicus [2] = experiment: Tested for in vivo thrombin time in rat arterial thrombosis model; type: functional
Rattus norvegicus [3] = experiment: Tested for in vivo mean occlusion time in rat arterial thrombosis model; type: functional

| Ki (Prothrombin) [µM] | SMILES | APTT (Rattus norvegicus [1]) [min] | TT (Rattus norvegicus [2]) [min] | MOT (Rattus norvegicus [3]) [min] |
| --- | --- | --- | --- | --- |
| > 10 | N/C(=N/O)c1ccc(CNC(=O)[C@@H]2CC[C@H]3CN(S(=O)(=O)Cc4ccccc4)CC(=O)N32)cc1 |  |  |  |
|  | N/C(=N\O)N1CCC(CNC(=O)[C@@H]2CC[C@H]3CN(S(=O)(=O)Cc4ccccc4)CC(=O)N32)CC1 | 0.633 | 3.85 | 48 |
| 0.008 | N=C(N)c1ccc(CNC(=O)[C@@H]2CC[C@H]3CN(S(=O)(=O)Cc4ccccc4)CC(=O)N32)cc1 | 0.967 | 7.58 | >60 |
| 0.0006 | N=C(N)NCCC[C@H](NC(=O)[C@@H]1CC[C@H]2CN(C(=O)CCc3ccccc3)CC(=O)N21)C(=O)c1nccs1 |  |  |  |
| 1.1 | O=C(NC[C@H]1CC[C@H](NO)CC1)[C@@H]1CC[C@H]2CN(S(=O)(=O)Cc3ccccc3)CC(=O)N21 |  |  |  |
| 0.1 | N[C@H]1CC[C@H](CNC(=O)C2CC[C@H]3CN(S(=O)(=O)Cc4ccccc4)CC(=O)N23)CC1 (some centres undefined) |  |  |  |
| 1 | O=C(NCc1ccc2nc[nH]c2c1)[C@@H]1CC[C@H]2CN(S(=O)(=O)Cc3ccccc3)CC(=O)N21 |  |  |  |
| 0.078 | N=C(N)N1CCC(CNC(=O)[C@@H]2CC[C@H]3CN(S(=O)(=O)Cc4ccccc4)CC(=O)N32)CC1 |  |  |  |
| 0.18 | N=C(N)N1CCC(CNC(=O)[C@@H]2CC[C@H]3CN(C(=O)CCc4ccccc4)CC(=O)N32)CC1 |  |  |  |
| 0.9 | N=C(N)NCCCCNC(=O)C1CC[C@H]2CN(C(=O)CCc3ccccc3)CC(=O)N12 (some centres undefined) |  |  |  |

| SMILES | Ki (Prothrombin) [µM] | APTT (Rattus norvegicus [1]) [min] | TT (Rattus norvegicus [2]) [min] | MOT (Rattus norvegicus [3]) [min] |
| --- | --- | --- | --- | --- |
| Cc1cc(C(=N)N)ccc1CNC(=O)[C@@H]1CC[C@H]2CN(S(=O)(=O)Cc3ccccc3)CC(=O)N21 | 0.007 | 0.9 | 6.55 | 46 |
